Experimental data taken from US11696913B2, “Prolonged ectoparasite-controlling agent for animal” (MITSUI CHEMICALS AGRO, INC., priority 2017, dated 2023).

Assays:
Ctenocephalides felis [1] = assay: In vitro contact test with fleas; details: read-out: insecticidal activity; for pest or weed control at 0.2 µg/cm2, 0.2 µg/cm2: dose 0.2 μg/cm^2, dead or moribund fleas after 48 h; for pest or weed control at 1 µg/cm2, 1 µg/cm2: dose 1 μg/cm^2, dead or moribund fleas after 48 h
Experimental: In Vitro Contact Tests with Fleas
In vitro contact tests with fleas were conducted with adult male and female cat fleas (Ctenocephalides felis).
(§1) To coat the test tubes, the test substance was dissolved and diluted in acetone p.a. to the desired concentration. The solution was then homogeneously applied to the inner wall and base of a glass tube by turning and rocking on an orbital shaker until complete evaporation of the solvent. For example, with a 900 ppm solution of test substance, an area-based dose of 5 μg/cm^2 was achieved.
Upon complete evaporation of the solvent, 5-10 adult cat fleas (Ctenocephalides felis) were added to each coated tube, which was then sealed with a perforated plastic lid and incubated in a horizontal position at room temperature and ambient humidity. After 48 h, insecticidal activity against fleas was determined. For this, fleas were collected to the base of the tube by knocking the tube, and the tube was allowed to stand upright. Fleas which remained motionless at the base or moved in an uncoordinated manner were considered dead or moribund, respectively.
A substance was judged to have good insecticidal activity against Ctenocephalides felis when at least 80% of the fleas were found dead or moribund at a dose of the substance of μg/cm^2. 100% insecticidal activity means that all the fleas were found dead or moribund. 0% insecticidal activity means that no fleas were found dead or moribund.

Amblyomma americanum = assay: In vitro contact test with hard ticks (Amblyomma americanum nymphs); details: read-out: acaricidal activity; for pest or weed control at 1 µg/cm2, 1 µg/cm2: dose 1 μg/cm^2, 48 h; for pest or weed control at 0.2 µg/cm2, 0.2 µg/cm2: dose 0.2 μg/cm^2, 48 h
Experimental: (§2) In Vitro Contact Tests with Adult Hard Ticks
(§3) In vitro contact tests with ticks were conducted with adult males and females of Rhipicephalus sanguineus, Ixodes ricinus, or Dermacentor variabilis, or nymphs of Amblyomma americanum.
as §1, with “For the coating of” for “To coat”, “vials,” for “tubes,”, “vial” for “tube”
(§4) After the solvent was completely evaporated, 5-10 adult ticks were put in each coated test vial, which was then sealed with a perforated plastic lid and incubated in a horizontal position in the dark at room temperature and ambient humidity (Rhipicephalus sanguineus) or in a climate-controlled cabinet (Ixodes ricinus, Dermacentor variabilis, Amblyomma americanum [21° C., 85% rel. hum.]). Acaricidal activity against the respective tick species was determined after 48 h. For this, ticks were collected to the base of the test vial by gentle knocking, and test vials were then incubated on a hotplate at 45-50° C. for no longer than 5 min. Ticks which remained motionless on the base of the test vial or moved uncoordinated without deliberately climbing up to avoid the heat were considered dead or moribund, respectively.
(§5) A substance was judged to have good acaricidal activity against the respective tick species when at least 80% of ticks were found dead or moribund at a dose of the substance of g/cm^2. An acaricidal activity of 100% means all ticks were dead or moribund. An acaricidal activity of 0% means none of the ticks was found dead or moribund.

Dermacentor variabilis = assay: In vitro contact test with adult hard ticks (Dermacentor variabilis); details: read-out: acaricidal activity; for pest or weed control at 0.2 µg/cm2, 0.2 µg/cm2: dose 0.2 μg/cm^2, 48 h; for pest or weed control at 1 µg/cm2, 1 µg/cm2: dose 1 μg/cm^2, 48 h
Experimental: as §2, §3
as §1, with “For the coating of” for “To coat”, “vials,” for “tubes,”, “vial” for “tube”
as §4, §5

Ixodes ricinus = assay: In vitro contact test with adult hard ticks (Ixodes ricinus); details: read-out: acaricidal activity; for pest or weed control at 0.2 µg/cm2, 0.2 µg/cm2: dose 0.2 μg/cm^2, 48 h; for pest or weed control at 1 µg/cm2, 1 µg/cm2: dose 1 μg/cm^2, 48 h; for pest or weed control at 5 µg/cm2, 5 µg/cm2: dose 5 μg/cm^2, 48 h
Experimental: as §2, §3
as §1, with “For the coating of” for “To coat”, “vials,” for “tubes,”, “vial” for “tube”
as §4, §5

Rhipicephalus sanguineus = assay: In vitro contact test with adult hard ticks (Rhipicephalus sanguineus); details: read-out: acaricidal activity; for pest or weed control at 0.2 µg/cm2, 0.2 µg/cm2: dose 0.2 μg/cm^2, 48 h; for pest or weed control at 0.04 µg/cm2, 0.04 µg/cm2: dose 0.04 μg/cm^2, 48 h; for pest or weed control at 1 µg/cm2, 1 µg/cm2: dose 1 μg/cm^2, 48 h
Experimental: as §2, §3
as §1, with “For the coating of” for “To coat”, “vials,” for “tubes,”, “vial” for “tube”
as §4, §5

[2] = system: Rhipicephalus (Boophilus) microplus; assay: In vitro injection test with Rhipicephalus (Boophilus) microplus (BOOPMI Inj); details: 168 h, laid fertile eggs after 7 days, read-out: acaricidal activity; for pest or weed control at 0.00016 mg: dose 0.16 μg/animal injected; for pest or weed control at 0.0008 mg: dose 0.8 μg/animal injected
Experimental: In Vitro Injection Test with Rhipicephalus (Boophilus) Microplus (BOOPMI Inj)
To produce an appropriate mixture for injection, the test substance was dissolved and diluted in dimethyl sulphoxide to the desired concentration. 1 μl of the test mixture was injected into the abdomen of each of 5 engorged adult female cattle ticks (Rhipicephalus (Boophilus) microplus). The ticks were transferred into petri dishes and maintained in a climate-controlled room [28° C., 85% rel. hum.].
Acaricidal activity against cattle ticks was assessed after 7 days by assessment of laid fertile eggs. […] An acaricidal activity of 100% means that none of the ticks laid eggs or laid eggs were infertile; 0% means that the ticks laid eggs, and all the eggs were fertile.

Ctenocephalides felis [3] = assay: Ctenocephalides felis in-vitro feeding test with fleas (CTECFE oral); details: 48 hours, read-out: insecticidal feeding activity; for pest or weed control at 0.8 ppm: dose 0.8 ppm in citrated cattle blood; for pest or weed control at 4 ppm: dose 4 ppm in citrated cattle blood
Experimental: Ctenocephalides felis In-Vitro Feeding Test with Fleas (CTECFE Oral)
To prepare a test blood mixture for feeding fleas, the test substance was dissolved in dimethyl sulphoxide and diluted with citrated cattle blood to the desired concentration.
To assemble the test set-up, about 20 unfed adult male and female cat fleas
(Ctenocephalides felis) were placed in a chamber which was closed at the top and bottom with gauze. A metal cylinder was sealed at one end with parafilm membrane, placed with the sealed base onto the chamber, and filled with the test blood mixture, which could be imbibed by the fleas through the parafilm membrane. The assembled test set-up was maintained at about 37° C. After 48 hours, the insecticidal feeding activity against fleas was determined. 100% means that all of the fleas were killed; 0% means that none of the fleas was killed.

N#Cc1ccc(C(=O)Nc2cccc(C(=O)Nc3c(Br)cc(C(F)(C(F)(F)F)C(F)(F)F)cc3OC(F)(F)F)c2)cc1 [Compound 9]
pest or weed control at 0.2 µg/cm2, 0.2 µg/cm2 (Ctenocephalides felis [1]): 95%
pest or weed control at 1 µg/cm2, 1 µg/cm2 (Ctenocephalides felis [1]): 95%
pest or weed control at 1 µg/cm2, 1 µg/cm2 (Amblyomma americanum): 90%
pest or weed control at 0.2 µg/cm2, 0.2 µg/cm2 (Dermacentor variabilis): 90%
pest or weed control at 1 µg/cm2, 1 µg/cm2 (Dermacentor variabilis): 90%
pest or weed control at 0.2 µg/cm2, 0.2 µg/cm2 (Ixodes ricinus): 90%
pest or weed control at 1 µg/cm2, 1 µg/cm2 (Ixodes ricinus): 90%
pest or weed control at 5 µg/cm2, 5 µg/cm2 (Ixodes ricinus): 90%
pest or weed control at 0.2 µg/cm2, 0.2 µg/cm2 (Rhipicephalus sanguineus): 90%
pest or weed control at 0.00016 mg [2]: 100%
pest or weed control at 0.0008 mg [2]: 100%
pest or weed control at 0.8 ppm (Ctenocephalides felis [3]): 95%
pest or weed control at 4 ppm (Ctenocephalides felis [3]): 95%

O=C(Nc1cccc(C(=O)Nc2c(Br)cc(C(F)(C(F)(F)F)C(F)(F)F)cc2OC(F)(F)F)c1)c1ccc(F)cc1 [Compound 12]
pest or weed control at 0.2 µg/cm2, 0.2 µg/cm2 (Ctenocephalides felis [1]): 95%
pest or weed control at 1 µg/cm2, 1 µg/cm2 (Ctenocephalides felis [1]): 95%
pest or weed control at 0.04 µg/cm2, 0.04 µg/cm2 (Amblyomma americanum; dose 0.04 μg/cm^2, 48 h): 90%
pest or weed control at 0.2 µg/cm2, 0.2 µg/cm2 (Amblyomma americanum): 90%
pest or weed control at 1 µg/cm2, 1 µg/cm2 (Amblyomma americanum): 90%
pest or weed control at 0.2 µg/cm2, 0.2 µg/cm2 (Ixodes ricinus): 90%
pest or weed control at 1 µg/cm2, 1 µg/cm2 (Ixodes ricinus): 90%
pest or weed control at 5 µg/cm2, 5 µg/cm2 (Ixodes ricinus): 90%
pest or weed control at 0.04 µg/cm2, 0.04 µg/cm2 (Rhipicephalus sanguineus): 90%
pest or weed control at 0.2 µg/cm2, 0.2 µg/cm2 (Rhipicephalus sanguineus): 90%
pest or weed control at 1 µg/cm2, 1 µg/cm2 (Rhipicephalus sanguineus): 90%
pest or weed control at 0.00016 mg [2]: 100%
pest or weed control at 0.0008 mg [2]: 100%
pest or weed control at 0.8 ppm (Ctenocephalides felis [3]): 95%
pest or weed control at 4 ppm (Ctenocephalides felis [3]): 95%

N#Cc1ccc(C(=O)Nc2cccc(C(=O)Nc3c(I)cc(C(F)(C(F)(F)F)C(F)(F)F)cc3C(F)(F)F)c2)cc1 [Compound 19]
pest or weed control at 0.2 µg/cm2, 0.2 µg/cm2 (Ctenocephalides felis [1]): 95%
pest or weed control at 1 µg/cm2, 1 µg/cm2 (Ctenocephalides felis [1]): 95%
pest or weed control at 1 µg/cm2, 1 µg/cm2 (Amblyomma americanum): 90%
pest or weed control at 0.2 µg/cm2, 0.2 µg/cm2 (Rhipicephalus sanguineus): 90%
pest or weed control at 1 µg/cm2, 1 µg/cm2 (Rhipicephalus sanguineus): 90%
pest or weed control at 0.00016 mg [2]: 100%
pest or weed control at 0.0008 mg [2]: 100%
pest or weed control at 0.8 ppm (Ctenocephalides felis [3]): 95%
pest or weed control at 4 ppm (Ctenocephalides felis [3]): 95%

CN(C(=O)c1ccc(F)nc1)c1cccc(C(=O)Nc2c(Br)cc(C(F)(C(F)(F)F)C(F)(F)F)cc2C(F)(F)F)c1F [Compound 21]
pest or weed control at 0.04 µg/cm2, 0.04 µg/cm2 (Ctenocephalides felis [1]; dose 0.04 μg/cm^2, dead or moribund fleas after 48 h): 95%
pest or weed control at 0.2 µg/cm2, 0.2 µg/cm2 (Ctenocephalides felis [1]): 95%
pest or weed control at 1 µg/cm2, 1 µg/cm2 (Ctenocephalides felis [1]): 95%
pest or weed control at 0.2 µg/cm2, 0.2 µg/cm2 (Amblyomma americanum): 90%
pest or weed control at 1 µg/cm2, 1 µg/cm2 (Amblyomma americanum): 90%
pest or weed control at 0.2 µg/cm2, 0.2 µg/cm2 (Dermacentor variabilis): 90%
pest or weed control at 1 µg/cm2, 1 µg/cm2 (Dermacentor variabilis): 90%
pest or weed control at 0.04 µg/cm2, 0.04 µg/cm2 (Rhipicephalus sanguineus): 90%
pest or weed control at 0.2 µg/cm2, 0.2 µg/cm2 (Rhipicephalus sanguineus): 90%
pest or weed control at 1 µg/cm2, 1 µg/cm2 (Rhipicephalus sanguineus): 90%
pest or weed control at 32 ng ([2]; dose 0.032 μg/animal injected): 100%
pest or weed control at 0.00016 mg [2]: 100%
pest or weed control at 0.0008 mg [2]: 100%
pest or weed control at 0.8 ppm (Ctenocephalides felis [3]): 95%
pest or weed control at 4 ppm (Ctenocephalides felis [3]): 95%
